Patent publication EP0500835B1, “A NOVEL QUINOLONE CARBOXYLIC ACID DERIVATIVE” (DAEWOONG PHARMACEUTICAL CO., LTD., priority 1990, dated 1992)

Legend:
[1] = test system: E. coli 1507E; test: In vitro antibacterial activity, MIC by agar dilution method; assay type: cell-based; details: Escherichia coli; E. coli 1507E; agar dilution method; read-out: In vitro Antibacterial Activity, MIC
Experimental: (§1) The typical examples of the present compounds were tested for antimicrobial activity in vitro against twenty strains of Gram-positive and Gram-negative microorganisms.
(§2) The numerals in the table 1 show minimum inhibitory concentrations(MIC in µg/ml). The minimum inhibitory concentrations were determined according to the agar dilution method recommended by Japan Society of Chemotherapy[Chemotherapy., 29, 76 (1981)].

[2] = test system: E. coli DC 0; test: as above; assay type: cell-based; details: Escherichia coli, DC0, read-out: In vitro Antibacterial Activity, MIC
Experimental: as §1, §2

[3] = test system: E. coli DC 2; test: as above; assay type: cell-based; details: Escherichia coli, DC2, read-out: In vitro Antibacterial Activity, MIC
Experimental: as §1, §2

[4] = test system: E. coli TEM; test: as above; assay type: cell-based; details: Escherichia coli; E. coli TEM; agar dilution method; read-out: In vitro Antibacterial Activity, MIC
Experimental: as §1, §2

[5] = test system: K. oxytoca 1082E; test: as above; assay type: cell-based; details: Klebsiella oxytoca; K. oxytoca 1082E; agar dilution method; read-out: In vitro Antibacterial Activity, MIC
Experimental: as §1, §2

[6] = test system: P. aeruginosa 1592E; test: as above; assay type: cell-based; details: Pseudomonas aeruginosa; P. aeruginosa 1592E; agar dilution method; read-out: In vitro Antibacterial Activity, MIC
Experimental: as §1, §2

[7] = test system: P. aeruginosa 1771M; test: as above; assay type: cell-based; details: Pseudomonas aeruginosa; P. aeruginosa 1771M; agar dilution method; read-out: In vitro Antibacterial Activity, MIC
Experimental: as §1, §2

[8] = test system: P. aeruginosa 1771; test: as above; assay type: cell-based; details: Pseudomonas aeruginosa; P. aeruginosa 1771; agar dilution method; read-out: In vitro Antibacterial Activity, MIC
Experimental: as §1, §2

[9] = test system: P. aeruginosa 9027; test: as above; assay type: cell-based; details: Pseudomonas aeruginosa; P. aeruginosa 9027; agar dilution method; read-out: In vitro Antibacterial Activity, MIC
Experimental: as §1, §2

[10] = test system: S. aureus 285; test: as above; assay type: cell-based; details: Staphylococcus aureus; S. aureus 285; agar dilution method; read-out: In vitro Antibacterial Activity, MIC
Experimental: as §1, §2

[11] = test system: S. aureus 503; test: as above; assay type: cell-based; details: Staphylococcus aureus; S. aureus 503; agar dilution method; read-out: In vitro Antibacterial Activity, MIC
Experimental: as §1, §2

[12] = test system: S. aureus SG 511; test: as above; assay type: cell-based; details: Staphylococcus aureus, SG511; S. aureus SG 511; agar dilution method; read-out: In vitro Antibacterial Activity, MIC
Experimental: as §1, §2

[13] = test system: S. faecium MD 86; test: as above; assay type: cell-based; details: Enterococcus faecium, MD86; S. faecium MD 86; agar dilution method; read-out: In vitro Antibacterial Activity, MIC
Experimental: as §1, §2

[14] = test system: S. pyogenes A 308; test: as above; assay type: cell-based; details: Streptococcus pyogenes, A308; S. pyogenes A 308; agar dilution method; read-out: In vitro Antibacterial Activity, MIC
Experimental: as §1, §2

[15] = test system: S. pyogenes A 77; test: as above; assay type: cell-based; details: Streptococcus pyogenes, A77; S. pyogenes A 77; agar dilution method; read-out: In vitro Antibacterial Activity, MIC
Experimental: as §1, §2

[16] = test system: E. cloacae 1321E; test: as above; assay type: cell-based; details: Enterobacter cloacae; E. cloacae 1321E; agar dilution method; read-out: In vitro Antibacterial Activity, MIC
Experimental: as §1
(§3) The minimum inhibitory concentrations were determined according to the agar dilution method recommended by Japan Society of Chemotherapy[Chemotherapy., 29, 76 (1981)].

[17] = test system: E. cloacae P99; test: as above; assay type: cell-based; details: Enterobacter cloacae; E. cloacae P99; agar dilution method; read-out: In vitro Antibacterial Activity, MIC
Experimental: as §1, §3

[18] = test system: E. coli O 55; test: as above; assay type: cell-based; details: Escherichia coli, O55; E. coli O 55; agar dilution method; read-out: In vitro Antibacterial Activity, MIC
Experimental: as §1, §3

[19] = test system: K. aerogenes 1522E; test: as above; assay type: cell-based; details: Klebsiella aerogenes; K. aerogenes 1522E; agar dilution method; read-out: In vitro Antibacterial Activity, MIC
Experimental: as §1, §3

[20] = test system: S. typhimurium; test: as above; assay type: cell-based; details: Salmonella enterica; S. typhimurium; agar dilution method; read-out: In vitro Antibacterial Activity, MIC
Experimental: as §1, §3

[21] = test system: Saphylococcus aureus 692E; test: Antibacterial activity for MRSA; assay type: cell-based; details: Saphylococcus aureus 692E (MRSA)
Experimental: (§4) The compound of example 2 was orally administered to determine the LD50 for a group of male mice. […] The antibacterial activity for MRSA(Methicillin Resistant Staphyloccocus Aureus) was tested by the compound of example 2.

[22] = test system: Staphylococcus aureus 121E; test: Antibacterial activity for MRSA; assay type: cell-based; details: Staphylococcus aureus 121E (MRSA)
Experimental: as §4

[23] = test system: Staphylococcus aureus 208E; test: Antibacterial activity for MRSA; assay type: cell-based; details: Staphylococcus aureus 208E (MRSA)
Experimental: as §4

[24] = test system: Staphylococcus aureus 256E; test: Antibacterial activity for MRSA; assay type: cell-based; details: Staphylococcus aureus 256E (MRSA)
Experimental: as §4

[25] = test system: Staphylococcus aureus 690E; test: Antibacterial activity for MRSA; assay type: cell-based; details: Staphylococcus aureus 690E (MRSA)
Experimental: as §4

[26] = test system: Staphylococcus aureus 693E; test: Antibacterial activity for MRSA; assay type: cell-based; details: Staphylococcus aureus 693E (MRSA)
Experimental: as §4

[27] = test system: Staphylococcus aureus 694E; test: Antibacterial activity for MRSA; assay type: cell-based; details: Staphylococcus aureus 694E (MRSA)
Experimental: as §4

[28] = test system: Staphylococcus aureus 695E; test: Antibacterial activity for MRSA; assay type: cell-based; details: Staphylococcus aureus 695E (MRSA)
Experimental: as §4

[29] = test system: Staphylococcus aureus 697E; test: Antibacterial activity for MRSA; assay type: cell-based; details: Staphylococcus aureus 697E (MRSA)
Experimental: as §4

[30] = test system: Staphylococcus aureus 701E; test: Antibacterial activity for MRSA; assay type: cell-based; details: Staphylococcus aureus 701E (MRSA)
Experimental: as §4

[31] = test system: Staphylococcus aureus 703E; test: Antibacterial activity for MRSA; assay type: cell-based; details: Staphylococcus aureus 703E (MRSA)
Experimental: as §4

[32] = test system: Staphylococcus aureus 705E; test: Antibacterial activity for MRSA; assay type: cell-based; details: Staphylococcus aureus 705E (MRSA)
Experimental: as §4

[33] = test system: Staphylococcus aureus 706E; test: Antibacterial activity for MRSA; assay type: cell-based; details: Staphylococcus aureus 706E (MRSA)
Experimental: as §4

[34] = test system: Staphylococcus aureus 707E; test: Antibacterial activity for MRSA; assay type: cell-based; details: Staphylococcus aureus 707E (MRSA)
Experimental: as §4

[35] = test system: Staphylococcus aureus 708E; test: Antibacterial activity for MRSA; assay type: cell-based; details: Staphylococcus aureus 708E (MRSA)
Experimental: as §4

[36] = test system: Staphylococcus aureus 711E; test: Antibacterial activity for MRSA; assay type: cell-based; details: Staphylococcus aureus 711E (MRSA)
Experimental: as §4

[37] = test system: Staphylococcus aureus 714E; test: Antibacterial activity for MRSA; assay type: cell-based; details: Staphylococcus aureus 714E (MRSA)
Experimental: as §4

[38] = test system: Staphylococcus aureus 752E; test: Antibacterial activity for MRSA; assay type: cell-based; details: Staphylococcus aureus 752E (MRSA)
Experimental: as §4

[39] = test system: Staphylococcus aureus 88 E; test: Antibacterial activity for MRSA; assay type: cell-based; details: Staphylococcus aureus 88 E (MRSA)
Experimental: as §4

[40] = Oral LD50 in male mice; details: mouse, in vivo, orally administered
Experimental: as §4

CSCC1CCN(c2c(F)cc3c(=O)c(C(=O)O)cn(C4CC4)c3c2F)C1 (stereo not shown) [Example 2, 1-cyclopropyl-6,8-difluoro-7-(3-methylthiomethylpyrrolidinyl)-1,4-dihydro-4-oxo-3-quinolinecarboxylic acid]
0.002 µg/mL: MIC [10] | MIC [11] | MIC [12]
0.025 µg/mL: MIC [16] | Antibacterial Activity for MRSA [23]
> 3000 mg/kg: LD50 [40]
0.781 µg/mL: MIC [2] | MIC [3] | MIC [6] | MIC [9]
0.195 µg/mL: MIC [13] | MIC [14]
0.013 µg/mL: MIC [18] | Antibacterial Activity for MRSA [22] | Antibacterial Activity for MRSA [24] | Antibacterial Activity for MRSA [27] | Antibacterial Activity for MRSA [28] | Antibacterial Activity for MRSA [29] | Antibacterial Activity for MRSA [30] | Antibacterial Activity for MRSA [32] | Antibacterial Activity for MRSA [33] | Antibacterial Activity for MRSA [36] | Antibacterial Activity for MRSA [38]
0.049 µg/mL: MIC [20]
0.004 µg/mL: Antibacterial Activity for MRSA [21] | Antibacterial Activity for MRSA [25] | Antibacterial Activity for MRSA [39]
0.007 µg/mL: MIC [5] | Antibacterial Activity for MRSA [26] | Antibacterial Activity for MRSA [31] | Antibacterial Activity for MRSA [34] | Antibacterial Activity for MRSA [35] | Antibacterial Activity for MRSA [37]
0.391 µg/mL: MIC [1] | MIC [4] | MIC [8]
0.098 µg/mL: MIC [7] | MIC [15] | MIC [17] | MIC [19]
